From patent US9533985B2, “Sulfonamide derivative and medicinal use thereof” (EA Pharma Co., Ltd., priority 2012, dated 2017)

Target: α4β7 integrin (Homo sapiens (Human), UniProt P13612+P26010)
Assay: MAdCAM-1/α4β7 integrin binding inhibitory activity evaluation test in the presence of serum (2)
Assay type: cell-based
Details: RPMI-8866 cells binding to mouse MAdCAM-1/Fc, same manner as Test (3), read-out: α4β7 Rank of activity with serum added
Outline: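 Adhesion of human RPMI-8866 B cells (α4β7-expressing) to plate-bound recombinant mouse MAdCAM-1/Fc in DMEM binding buffer with 4 mM MnCl2 and 50% final human serum, 15–60 min at 30 °C. Bound cells quantified by LDH activity (A490) after lysis; IC50 relative to no-compound binding, duplicate.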

α4β7 integrin, sequence (P13612 34-1032): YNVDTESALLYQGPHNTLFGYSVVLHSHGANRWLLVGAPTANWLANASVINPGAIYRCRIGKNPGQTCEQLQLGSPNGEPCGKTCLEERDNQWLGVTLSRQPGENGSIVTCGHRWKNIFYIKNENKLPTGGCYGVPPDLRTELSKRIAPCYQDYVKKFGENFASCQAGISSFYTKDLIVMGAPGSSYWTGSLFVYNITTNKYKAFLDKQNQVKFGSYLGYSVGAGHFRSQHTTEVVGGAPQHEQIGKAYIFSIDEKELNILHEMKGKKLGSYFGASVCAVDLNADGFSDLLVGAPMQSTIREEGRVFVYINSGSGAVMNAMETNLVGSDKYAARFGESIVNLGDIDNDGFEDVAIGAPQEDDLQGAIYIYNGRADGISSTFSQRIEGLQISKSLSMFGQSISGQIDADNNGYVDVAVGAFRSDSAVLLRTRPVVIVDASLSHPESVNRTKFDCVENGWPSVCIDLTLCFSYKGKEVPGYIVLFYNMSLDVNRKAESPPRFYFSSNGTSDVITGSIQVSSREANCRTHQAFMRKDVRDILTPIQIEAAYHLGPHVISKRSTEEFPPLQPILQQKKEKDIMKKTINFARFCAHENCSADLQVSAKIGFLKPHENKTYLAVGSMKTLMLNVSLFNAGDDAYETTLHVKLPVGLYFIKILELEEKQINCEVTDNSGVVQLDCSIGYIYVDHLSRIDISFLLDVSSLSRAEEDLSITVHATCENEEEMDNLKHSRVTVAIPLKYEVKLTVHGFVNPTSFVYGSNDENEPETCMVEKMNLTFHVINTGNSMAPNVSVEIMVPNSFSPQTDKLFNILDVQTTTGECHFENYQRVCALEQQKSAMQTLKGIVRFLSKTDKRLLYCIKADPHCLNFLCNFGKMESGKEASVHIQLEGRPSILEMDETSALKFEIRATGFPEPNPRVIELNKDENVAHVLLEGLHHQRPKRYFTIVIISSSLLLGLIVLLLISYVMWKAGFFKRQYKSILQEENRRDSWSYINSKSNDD
α4β7 integrin, sequence (P26010 20-798): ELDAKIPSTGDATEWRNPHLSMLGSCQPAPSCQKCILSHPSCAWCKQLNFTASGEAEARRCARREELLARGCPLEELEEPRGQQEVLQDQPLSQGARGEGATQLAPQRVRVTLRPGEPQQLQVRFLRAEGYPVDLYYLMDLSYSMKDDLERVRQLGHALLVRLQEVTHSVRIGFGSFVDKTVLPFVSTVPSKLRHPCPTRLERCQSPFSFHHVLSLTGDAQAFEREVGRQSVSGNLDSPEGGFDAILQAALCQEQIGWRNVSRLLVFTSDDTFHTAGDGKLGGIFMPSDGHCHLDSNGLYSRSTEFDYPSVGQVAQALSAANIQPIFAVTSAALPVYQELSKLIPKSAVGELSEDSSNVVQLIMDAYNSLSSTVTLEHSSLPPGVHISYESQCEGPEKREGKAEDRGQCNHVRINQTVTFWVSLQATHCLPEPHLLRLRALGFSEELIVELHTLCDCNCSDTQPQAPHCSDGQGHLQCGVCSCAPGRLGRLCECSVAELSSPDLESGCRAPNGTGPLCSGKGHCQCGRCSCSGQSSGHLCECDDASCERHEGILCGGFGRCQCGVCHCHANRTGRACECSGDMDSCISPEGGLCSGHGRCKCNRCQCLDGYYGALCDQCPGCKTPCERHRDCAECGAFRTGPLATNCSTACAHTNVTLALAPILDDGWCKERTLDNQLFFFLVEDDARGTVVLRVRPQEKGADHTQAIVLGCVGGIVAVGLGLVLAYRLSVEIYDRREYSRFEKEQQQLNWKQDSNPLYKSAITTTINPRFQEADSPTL

Row | Compound | IC50
1 | Cn1c(=O)n(-c2ccc(C[C@H](NC(=O)c3cc(F)c(NS(=O)(=O)c4ccc(C(=O)C5CC5)cc4)cc3F)C(=O)O)nc2)c(=O)c2ccncc21 [Example 223, N-[4-({[4-(Cyclopropylcarbonyl)phenyl]sulfonyl}amino)-2,5-difluorobenzoyl]-3-[5-(1-methyl-2,4-dioxo-1,4-dihydropyrido[3,4-d]pyrimidin-3(2H)-yl)pyridin-2-yl]-L-alanine] | 50 to 200 nM
2 | Cn1c(=O)n(-c2ccc(C[C@H](NC(=O)c3cc(F)c(NS(=O)(=O)c4ccc(-n5cncn5)cc4)cc3F)C(=O)O)nc2)c(=O)c2ccncc21 [Example 224, N-[2,5-Difluoro-4-({[4-(1H-1,2,4-triazol-1-yl)phenyl]sulfonyl}amino)benzoyl]-3-[5-(1-methyl-2,4-dioxo-1,4-dihydropyrido[3,4-d]pyrimidin-3(2H)-yl)pyridin-2-yl]-L-alanine] | 10 to 50 nM
3 | Cn1c(=O)n(-c2ccc(C[C@H](NC(=O)c3cc(F)c(NS(=O)(=O)c4ccc(-n5cncn5)cc4)cc3F)C(=O)O)cc2)c(=O)c2ccncc21 [Example 225, N-[2,5-Difluoro-4-({[4-(1H-1,2,4-triazol-1-yl)phenyl]sulfonyl}amino)benzoyl]-4-(1-methyl-2,4-dioxo-1,4-dihydropyrido[3,4-d]pyrimidin-3(2H)-yl)-L-phenylalanine] | 10 to 50 nM
4 | Cn1c(=O)n(-c2ccc(C[C@H](NC(=O)c3cc(F)c(NS(=O)(=O)c4ccc(-n5ccnn5)cc4)cc3F)C(=O)O)nc2)c(=O)c2ccncc21 [Example 226, N-[2,5-Difluoro-4-({[4-(1H-1,2,3-triazol-1-yl)phenyl]sulfonyl}amino)benzoyl]-3-[5-(1-methyl-2,4-dioxo-1,4-dihydropyrido[3,4-d]pyrimidin-3(2H)-yl)pyridin-2-yl]-L-alanine] | 10 to 50 nM
5 | Cc1cc(-c2ccc(S(=O)(=O)Nc3cc(F)c(C(=O)N[C@@H](Cc4ccc(-n5c(=O)c6ccncc6n(C)c5=O)cn4)C(=O)O)cc3F)nc2)cc(C)n1 [Example 227, N-(4-{[(2′,6′-Dimethyl-3,4′-bipyridin-6-yl)sulfonyl]amino}-2,5-difluorobenzoyl)-3-[5-(1-methyl-2,4-dioxo-1,4-dihydropyrido[3,4-d]pyrimidin-3(2H)-yl)pyridin-2-yl]-L-alanine] | 50 to 200 nM
6 | COc1ncc(-c2ccc(S(=O)(=O)Nc3cc(F)c(C(=O)N[C@@H](Cc4ccc(-n5c(=O)c6ccncc6n(C)c5=O)cn4)C(=O)O)cc3F)cc2)cn1 [Example 228, N-[2,5-Difluoro-4-({[4-(2-methoxypyrimidin-5-yl)phenyl]sulfonyl}amino)benzoyl]-3-[5-(1-methyl-2,4-dioxo-1,4-dihydropyrido[3,4-d]pyrimidin-3(2H)-yl)pyridin-2-yl]-L-alanine] | 50 to 200 nM
7 | CCc1ncc(-c2ccc(S(=O)(=O)Nc3cc(F)c(C(=O)N[C@@H](Cc4ccc(-n5c(=O)c6ccncc6n(C)c5=O)cn4)C(=O)O)cc3F)cc2)cn1 [Example 229, N-[4-({[4-(2-Ethylpyrimidin-5-yl)phenyl]sulfonyl}amino)-2,5-difluorobenzoyl]-3-[5-(1-methyl-2,4-dioxo-1,4-dihydropyrido[3,4-d]pyrimidin-3(2H)-yl)pyridin-2-yl]-L-alanine] | 50 to 200 nM
8 | Cn1c(=O)n(-c2ccc(C[C@H](NC(=O)c3cc(F)c(NS(=O)(=O)c4ccc(-c5ncccn5)cn4)cc3F)C(=O)O)nc2)c(=O)c2ncccc21 [Example 230, N-(2,5-Difluoro-4-{[(5-pyrimidin-2-ylpyridin-2-yl)sulfonyl]amino}benzoyl)-3-[5-(1-methyl-2,4-dioxo-1,4-dihydropyrido[3,2-d]pyrimidin-3(2H)-yl)pyridin-2-yl]-L-alanine] | 50 to 200 nM
9 | CCOc1cc(-c2ncccn2)ccc1S(=O)(=O)Nc1cc(F)c(C(=O)N[C@@H](Cc2ccc(-n3c(=O)c4ccncc4n(C)c3=O)cn2)C(=O)O)c(F)c1 [Example 231, N-(4-{[(2-Ethoxy-4-pyrimidin-2-ylphenyl)sulfonyl]amino}-2,6-difluorobenzoyl)-3-[5-(1-methyl-2,4-dioxo-1,4-dihydropyrido[3,4-d]pyrimidin-3(2H)-yl)pyridin-2-yl]-L-alanine] | ≤ 10 nM
10 | Cn1c(=O)n(-c2ccc(C[C@H](NC(=O)c3cc(F)c(NS(=O)(=O)c4ccc(-c5cnc(N6CCC6)nc5)cc4)cc3F)C(=O)O)nc2)c(=O)c2ccncc21 [Example 232, N-[4-({[4-(2-Azetidin-1-ylpyrimidin-5-yl)phenyl]sulfonyl}amino)-2,5-difluorobenzoyl]-3-[5-(1-methyl-2,4-dioxo-1,4-dihydropyrido[3,4-d]pyrimidin-3(2H)-yl)pyridin-2-yl]-L-alanine] | 50 to 200 nM
11 | Cn1c(=O)n(-c2ccc(C[C@H](NC(=O)c3cc(F)c(NS(=O)(=O)c4ccc5c(c4)C(=O)OC5)cc3F)C(=O)O)nc2)c(=O)c2ccncc21 [Example 233, N-(2,5-Difluoro-4-{[(3-oxo-1,3-dihydro-2-benzofuran-5-yl)sulfonyl]amino}benzoyl)-3-[5-(1-methyl-2,4-dioxo-1,4-dihydropyrido[3,4-d]pyrimidin-3(2H)-yl)pyridin-2-yl]-L-alanine] | 50 to 200 nM
12 | Cc1cn(-c2ccc(S(=O)(=O)Nc3cc(F)c(C(=O)N[C@@H](Cc4ccc(-n5c(=O)c6ccncc6n(C)c5=O)cn4)C(=O)O)cc3F)cc2)nn1 [Example 234, N-[2,5-Difluoro-4-({[4-(4-methyl-1H-1,2,3-triazol-1-yl)phenyl]sulfonyl}amino)benzoyl]-3-[5-(1-methyl-2,4-dioxo-1,4-dihydropyrido[3,4-d]pyrimidin-3(2H)-yl)pyridin-2-yl]-L-alanine] | 10 to 50 nM
13 | Cn1c(=O)n(-c2ccc(C[C@H](NC(=O)c3cc(F)c(NS(=O)(=O)c4ccc(-c5cc(F)cc(F)c5)cc4)cc3F)C(=O)O)nc2)c(=O)c2ccncc21 [Example 235, N-(4-{[(3′,5′-Difluorobiphenyl-4-yl)sulfonyl]amino}-2,5-difluorobenzoyl)-3-[5-(1-methyl-2,4-dioxo-1,4-dihydropyrido[3,4-d]pyrimidin-3(2H)-yl)pyridin-2-yl]-L-alanine] | > 200 nM
14 | CCc1ncc(-c2ccc(S(=O)(=O)Nc3cc(F)c(C(=O)N[C@@H](Cc4ccc(-n5c(=O)c6ccncc6n(C)c5=O)cn4)C(=O)O)cc3F)nc2)cn1 [Example 236, N-[4-({[5-(2-Ethylpyrimidin-5-yl)pyridin-2-yl]sulfonyl}amino)-2,5-difluorobenzoyl]-3-[5-(1-methyl-2,4-dioxo-1,4-dihydropyrido[3,4-d]pyrimidin-3(2H)-yl)pyridin-2-yl]-L-alanine] | 10 to 50 nM
15 | CCc1ncc(-c2ccc(S(=O)(=O)Nc3cc(F)c(C(=O)N[C@@H](Cc4ccc(-n5c(=O)c6ccncc6n(C)c5=O)cc4)C(=O)O)cc3F)cc2)cn1 [Example 237, N-[4-({[4-(2-Ethylpyrimidin-5-yl)phenyl]sulfonyl}amino)-2,5-difluorobenzoyl]-4-(1-methyl-2,4-dioxo-1,4-dihydropyrido[3,4-d]pyrimidin-3(2H)-yl)-L-phenylalanine] | 10 to 50 nM
16 | CCc1ncc(-c2ccc(S(=O)(=O)Nc3cc(F)c(C(=O)N[C@@H](Cc4ccc(-n5c(=O)c6ccncc6n(C)c5=O)nc4)C(=O)O)cc3F)cc2)cn1 [Example 238, N-[4-({[4-(2-Ethylpyrimidin-5-yl)phenyl]sulfonyl}amino)-2,5-difluorobenzoyl]-3-[6-(1-methyl-2,4-dioxo-1,4-dihydropyrido[3,4-d]pyrimidin-3(2H)-yl)pyridin-3-yl]-L-alanine] | ≤ 10 nM
